The source of these data is BindingDB's records for doi:10.1111/j.1600-0773.1996.tb00261.x (Uppsala University, 1996).

pKi: −log10 of the molar value. Where a SMILES comes first, the peptide text is derived from it. [ ]: non-standard residue; d: D form. Met(O2) = CS(=O)(=O)CC[C@H](N)C(=O)O Where only a bound is given, the exact number is not on record here.

As usually defined, the pKi is the Ki on a negative log10 scale, so that one unit is a factor of ten. Read a high pKi as a low Ki.

The experiment deals with Melanocortin receptor 4 (Homo sapiens, UniProt P32245).
Melanocortin receptor 4, sequence (P32245 whole entry): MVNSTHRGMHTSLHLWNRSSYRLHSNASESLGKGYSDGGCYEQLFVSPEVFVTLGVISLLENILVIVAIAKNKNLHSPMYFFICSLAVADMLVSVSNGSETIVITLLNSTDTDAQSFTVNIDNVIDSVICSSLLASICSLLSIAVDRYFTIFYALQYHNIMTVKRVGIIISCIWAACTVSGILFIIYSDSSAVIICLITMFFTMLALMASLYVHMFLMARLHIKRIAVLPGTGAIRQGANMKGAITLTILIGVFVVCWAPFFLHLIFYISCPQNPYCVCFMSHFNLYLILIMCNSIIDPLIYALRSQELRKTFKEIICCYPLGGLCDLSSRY
For the compound `CS(=O)(=O)CC[C@H](N)C(=O)N[C@@H](CCC(=O)O)C(=O)N[C@@H](Cc1c[nH]cn1)C(=O)N[C@@H](Cc1ccccc1)C(=O)N[C@H](CCCCN)C(=O)N[C@@H](Cc1ccccc1)C(=O)O` [CAS_50913-82-1] (H-[Met(O2)]EHF[dK]F-OH), the pKi was < 5.00.

As for `CSCC[C@H](N)C(=O)N[C@@H](CCC(=O)O)C(=O)N[C@@H](Cc1cnc[nH]1)C(=O)N[C@@H](Cc1ccccc1)C(=O)N[C@@H](CCCNC(=N)N)C(=O)N[C@@H](Cc1c[nH]c2ccccc12)C(=O)NCC(N)=O` [NSC_123787], the pKi is < 5.00.

H-SMEVRGW-OH [delta MSH]: the pKi is < 5.00. Then “H-SYSMEHFRWGKPVGKKRRPVKVYPNGAEDESAEAFPLEF-OH [ACTH]”, with 6.16; and “H-YVMGHFRWDRFGRRNGSSSSGVGGAAQ-OH [Gamma3-MSH]”, with < 5.00.
